Assay results as given in the NIST ThermoML archive (doi:10.1021/je034209e).

Experiment: mn = molality of the nth substance listed, in mol/kg
Settings: 298.15 K, 101.3 kPa, Liquid, Vibrating tube method

CC(N)C(=O)O (stereo not drawn) [DL-2-aminopropanoic acid] + O
Settings	mass density [kg/m3]
m1 = 0.0436	998.297
m1 = 0.08036	999.343
m1 = 0.1483	1001.26
m1 = 0.2059	1002.86
m1 = 0.3297	1006.26
m1 = 0.3863	1007.79
m1 = 0.4436	1009.33

N[C@@H](Cc1ccccc1)C(=O)O [L-phenylalanine] + O
Settings	mass density [kg/m3]
m1 = 0.01545	997.721
m1 = 0.02099	997.961
m1 = 0.02977	998.343
m1 = 0.03372	998.516
m1 = 0.04624	999.058
m1 = 0.05305	999.349
m1 = 0.05832	999.577

CC(C)C[C@H](N)C(=O)O [L-leucine] + O
Settings	mass density [kg/m3]
m1 = 0.01266	997.346
m1 = 0.01738	997.458
m1 = 0.02274	997.582
m1 = 0.03028	997.762
m1 = 0.03943	997.975
m1 = 0.04666	998.149
m1 = 0.05611	998.37

CCC(N)C(=O)O (stereo not drawn) [(.+-.)-α-aminobutyric acid] + O
Settings	mass density [kg/m3]
m1 = 0.03934	998.127
m1 = 0.08124	999.275
m1 = 0.1445	1000.99
m1 = 0.2022	1002.54
m1 = 0.2374	1003.48
m1 = 0.2864	1004.78
m1 = 0.3179	1005.6

CC(=O)[O-].[Na+] [sodium ethanoate] + O
Settings	mass density [kg/m3]
m1 = 0.5	1023.28
m1 = 1	1047.56
m1 = 2	1086.81
m1 = 4	1123.24
m1 = 5.5	1139.16

NCC(=O)O [2-aminoacetic acid] + O
Settings	mass density [kg/m3]
m1 = 0.09741	1000.14
m1 = 0.2011	1003.37
m1 = 0.3016	1006.46
m1 = 0.3936	1009.25
m1 = 0.4878	1012.07
m1 = 0.5916	1015.1
